Reference: patent US20250122502A1, “Bifunctional Molecules and Methods of Using Thereof” (FLAGSHIP PIONEERING, INC., priority 2021, published 2025)

System: MYC expression in HEK293T cells
Test: MYC expression by qPCR after RNAiMax transfection
Type: cell-based, human
Conditions: 100 nM, 24 hours
Experimental: HEK293T cells were seeded at 30 k cells/well in a 96 well tissue culture vessel day before transfection. The next day cells were transfected with 400, 200, 100, 50 nM of PVT1 ASO1-JQ1 with Lipofectamine RNAiMax (ThermoFisher Cat #13778150). […] Transfected cells were allowed to recover and were harvested after 24 hours. MYC expression was measured by RNA level using qPCR analysis after transfection with each of the bi-functional molecule or control molecules. Cell samples for qPCR analysis were prepared by Cells to Ct 1 Step TaqMan Kit (ThermoFisher A25602) following manufacturer's recommendations. qPCR assays were performed using Cells to Ct qPCR master mix, gene specific TaqMan probe (ThermoFisher), and Cells to Ct cell lysate. Relative levels of MYC were normalized to β-actin as a stably expressed control. MYC TaqMan probe: […] ACTB TaqMan probe: […] During qPCR amplification, FAM fluorescence intensity for each target gene was recorded by QuantStudio7 qPCR instrument (ThermoFisher Scientific) as a measurement of the amount of double-stranded DNA produced during each PCR cycle. Ct values for each gene in each sample were computed by the instrument software based on the amplification curves, and used to determine relative expression values for target and β-actin in each sample.

PVT1-Scr4: partially scrambled PVT1 ASO1 (SEQ ID NO: 66) conjugated to JQ1 (antisense GTAAGTGGAATTCCATTGG; listed as DNA, chemistry not fully specified)
MYC expression change (in words): less impact

PVT1-Scr1: partially scrambled PVT1 ASO1 (SEQ ID NO: 63) conjugated to JQ1 (antisense TGAAGTGGAATTCCAGTTG; listed as DNA, chemistry not fully specified)
MYC expression change (in words): less impact
